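Compound exposure: 48 hours, 5 concentrations, 96-well plates. TGI marks complete inhibition of growth.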
Tests used:
Experiment in all cases: DTP human tumour cell line panel, 48 h
[1] = test system: CCRF-CEM leukemia
[2] = test system: CAKI-1 renal
[3] = test system: IGROV1 ovarian
[4] = test system: DMS 273 small cell lung
[5] = test system: SK-OV-3 ovarian
[6] = test system: COLO 205 colon
[7] = test system: SF-295 CNS
[8] = test system: 786-0 renal
[9] = test system: MALME-3M melanoma
[10] = test system: UACC-257 melanoma
[11] = test system: SK-MEL-28 melanoma
[12] = test system: OVCAR-4 ovarian
[13] = test system: U251 CNS
[14] = test system: HOP-62 NSCLC
[15] = test system: HL-60(TB) leukemia
[16] = test system: SK-MEL-2 melanoma
[17] = test system: LOX IMVI melanoma
[18] = test system: M19-MEL melanoma
[19] = test system: UACC-62 melanoma
[20] = test system: SF-268 CNS
[21] = test system: EKVX NSCLC
[22] = test system: SW-620 colon
[23] = test system: NCI-H460 lung
[24] = test system: M14 melanoma
[25] = test system: RXF 393 renal
[26] = test system: HCT-15 colon
[27] = test system: KM20L2 colon
[28] = test system: OVCAR-3 ovarian
[29] = test system: NCI-H522 lung
[30] = test system: OVCAR-8 ovarian
[31] = test system: OVCAR-5 ovarian
[32] = test system: HOP-92 NSCLC
[33] = test system: XF 498 CNS
[34] = test system: LXFL 529 NSCLC
[35] = test system: SNB-78 CNS
[36] = test system: HCT-116 colon
[37] = test system: NCI-H226 lung
[38] = test system: SF-539 CNS
[39] = test system: SNB-75 CNS
[40] = test system: A549 NSCLC
[41] = test system: SK-MEL-5 melanoma
[42] = test system: ACHN renal
[43] = test system: UO-31 renal
[44] = test system: NCI-H23 lung
[45] = test system: MOLT-4 leukemia
[46] = test system: HT29 colon
[47] = test system: SN12C renal
[48] = test system: TK-10 renal
[49] = test system: K-562 leukemia
[50] = test system: A498 renal
[51] = test system: SNB-19 CNS

Measured: TGI

CC(=O)Nc1ccc(C(=O)NN2C(=O)C(Cl)C2c2ccc([N+](=O)[O-])cc2)cc1 (stereo unspecified)
> 100 µM: all assays above
